Data reported in US20260097051A1, “CANNA[…] A T[…] FOR COVID-19” (AUGUSTA UNIVERSITY RESEARCH INSTITUTE, INC., priority 2021, published 2026).
“Also recorded” adds a separate entry of the source.

What was measured:
[1] = biological target: transient receptor potential (TRP) ankyrin 1-type (TRPA1) channels (Rattus norvegicus, UniProt Q6RI86); conditions: De Petrocellis et al., 2008; 2011; cited from earlier work
[2] = tested on: monoacylglycerol lipase (MAGL); conditions: De Petrocellis et al., 2011; cited from earlier work
[3] = tested on: endocannabinoid cellular reuptake; conditions: Ligresti et al., 2006; cited from earlier work
[4] = tested on: Poly(I:C)-induced ARDS in C57BL/6 mice; experiment: Poly(I:C)-induced ARDS mouse model, CBC treatment
Description: Animal model and application of Poly(I:C) and CBC: Wild-type (WT) C57BL/6 mice (male, 12 weeks old) were divided into 3 experimental groups of sham, control and treatment (n=5). […] All mice were anesthetized with isoflurane. Sham group received PBS while control and treatment groups were administered by Poly(I:C) (Sigma Aldrich, USA) (100 μg in 50 μl sterile PBS) intranasally (I/N) three once-daily doses. CBC (isolate THC free) was delivered intraperitoneally (5mg/kg), first dose two hours after the second Poly(I:C) treatment and every other day interval, total of 3 doses. Sham and control groups received PBS only. All mice were sacrificed at 8 days after the first Poly(I:C) application. Blood and lung tissues were harvested and subjected to the further analysis.
Measurement of vital signs: Vital signs including temperature, Blood O2 saturation were measured prior and post of any treatment. Central body temperature was measured rectally and blood oxygen saturation was determined using portable pulse oximetry through carotid arteries.
Histology and immunohistochemistry: Left lobes of lung tissue were fixed in 10% neutral buffered formalin. Samples were processed by routine methods, oriented so as to provide coronal sections and 5 micron mid-coronal sections cut and stained with hematoxylin & eosin, Trichrome for histology. As for inflammatory indices, immunohistochemistry was performed by incubating the samples with specific antibodies against murine IL-6 (Cat #554402, BD BioSciences Pharmingen) and Neutrophils (Cat #G102, Leinco Technologies). Preparations were counterstained with hematoxylin (catalog no. 7221; Richard-Allan Scientific, Kalamazoo, MI, USA) and mounted in Faramount (catalog no. S3025, DAKO), analyzed and imaged by brightfield microscopy.
Analytical Flow Cytometry: Single cell suspension was prepared from lung tissues. Briefly, tissue samples were sieved through a 100 μM cell strainer (BD Biosciences, San Diego, CA), followed by centrifugation (1,000 rpm, 10 min) to prepare single-cell suspensions. All cells were then stained with fluorescent antibodies to quantify neutrophils, macrophages, lymphocytes and cytokine expression. Briefly, all cells were stained with anti-Gr1 (Neutrophils), Anti-F4/80 (Macrophages), and anti-CD3/CD4/CD8 (Lymphocytes, all from Biolegend USA). Then cells were fixed and permeabilized and stained intracellularly for cytokines including IL-6, TNFα, IL-2, and IFNγ (Proinflammatory cytokines). All samples were run through a 4-Laser LSR II flow cytometer. Cells were gated based on forward and side scatter properties and on marker combinations to select cells of interest. All acquired flow cytometry data were analyzed using the FlowJo V10.
Statistical analysis: Graphs and summary statistics were also used to assess the results. All statistical tests were 2-sided. Except for where noted, all p-values presented are unadjusted for multiple comparisons.

[5] = tested on: Poly(I:C)-induced ARDS in C57BL/6 mice; experiment: Poly(I:C)-induced ARDS mouse model, CBD treatment
Description: Animal model and application of Poly(I:C) and CBC: Adult (12 weeks) male C57B1/6 mice were block randomized into one of three experimental groups (n=10 mice/group) by a blinded investigator. Group I received intranasal, once daily administration of sterile saline for three consecutive days to serve as a control. Group II received intranasal, once daily administration of Poly I:C (100 μg in 50 μL in sterile saline) for three consecutive days to mimic ARDS. Group III received intranasal, once daily administration of Poly I:C (100 μg in 50 μL in sterile saline) for three consecutive days, with intraperitoneal administration of CBD (isolate CBD, THC-free, 5 mg/kg body weight, Canabidiol Ltd, Dublin, Ireland), first dose two hours after the second Poly(I:C) treatment and every other day for a total of 3 doses to the treatment group. Blood oxygen saturation was quantified via the carotid arteries using a portable pulse oximeter at study initiation (day 0) and once daily for the duration of the study. Mice were euthanized at study day nine. Blood and lung tissue were harvested and subjected to flow cytometry, immunofluorescence and histological analysis, as detailed above. All flow cytometry data were analysed using the FlowJo V10 software while immunofluorescence, and histological preparations were analysed and imaged by fluorescence and bright field microscopy. As for additional histological evaluation, Masson's Trichrome staining was used for the detection of collagen fibres in lung on formalin-fixed, paraffin-embedded sections. The collagen fibres stained in blue and the background is stained red. Sections were examined and analysed using bright field microscopy imaging.

[6] = blood, vs untreated counterparts, p<0.01
[7] = lung tissue, PIC+CBC vs sham or PIC
[8] = lung, vs untreated counterparts, p<0.01
[9] = lung tissue, CBD after Poly(I:C)
[10] = whole blood, CBD 5 mg/kg intraperitoneal, 3 doses, after Poly(I:C)

Chain of transient receptor potential (TRP) ankyrin 1-type (TRPA1) channels (Q6RI86 whole entry): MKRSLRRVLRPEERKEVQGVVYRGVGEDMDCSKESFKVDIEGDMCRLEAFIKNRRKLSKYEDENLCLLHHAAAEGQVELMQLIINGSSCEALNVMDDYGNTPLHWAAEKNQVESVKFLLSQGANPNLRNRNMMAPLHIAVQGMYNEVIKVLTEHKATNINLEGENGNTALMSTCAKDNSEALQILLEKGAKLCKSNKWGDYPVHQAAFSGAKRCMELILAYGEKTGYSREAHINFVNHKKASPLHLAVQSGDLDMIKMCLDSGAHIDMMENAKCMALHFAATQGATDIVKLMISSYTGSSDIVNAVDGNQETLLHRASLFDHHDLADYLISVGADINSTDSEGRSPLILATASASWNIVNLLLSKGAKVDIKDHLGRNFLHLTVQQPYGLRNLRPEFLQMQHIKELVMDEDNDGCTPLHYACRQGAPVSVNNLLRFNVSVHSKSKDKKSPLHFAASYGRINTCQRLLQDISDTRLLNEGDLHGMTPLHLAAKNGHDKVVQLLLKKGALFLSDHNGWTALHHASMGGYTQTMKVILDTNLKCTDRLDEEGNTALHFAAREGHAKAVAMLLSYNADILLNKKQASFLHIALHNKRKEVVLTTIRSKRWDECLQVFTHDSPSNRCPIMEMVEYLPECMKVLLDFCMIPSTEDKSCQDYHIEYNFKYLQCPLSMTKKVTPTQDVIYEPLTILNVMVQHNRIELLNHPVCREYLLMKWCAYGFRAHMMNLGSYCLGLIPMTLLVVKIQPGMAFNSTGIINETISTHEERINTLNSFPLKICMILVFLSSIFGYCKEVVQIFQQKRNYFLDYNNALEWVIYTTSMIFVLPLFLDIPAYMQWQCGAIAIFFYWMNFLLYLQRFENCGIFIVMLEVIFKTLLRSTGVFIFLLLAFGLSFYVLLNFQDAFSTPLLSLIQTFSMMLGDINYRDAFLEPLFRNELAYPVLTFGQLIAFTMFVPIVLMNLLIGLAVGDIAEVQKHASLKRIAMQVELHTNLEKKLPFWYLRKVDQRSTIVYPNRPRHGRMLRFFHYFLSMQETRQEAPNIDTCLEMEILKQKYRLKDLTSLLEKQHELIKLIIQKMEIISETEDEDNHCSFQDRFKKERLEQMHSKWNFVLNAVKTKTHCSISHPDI

Structure (SMILES) | activation of TRPA1 channels [1] | inhibition of monoacylglycerol lipase (MAGL) [2] | inhibition of endocannabinoid cellular reuptake [3] | increase in blood oxygen saturation ([4]; Poly(I:C) mice, CBC treated vs untreated PIC) [%] | blood oxygen saturation after CBC treatment ([4]; Poly(I:C) mice, pulse oximetry, untreated PIC group 90%) [%] | IFNγ expression level in blood (flow cytometry) [4, 6] | IL-6 expression level in blood (flow cytometry) [4, 6] | IL-17 expression level in blood (flow cytometry) [4, 6] | lung histology (H&E, Masson's trichrome): structural damage, hypertrophy and fibrosis ([4]; lung tissue, PIC+CBC vs PIC) | TRPA1 expression in lung tissue (immunohistochemistry) [4, 7] | TRPV1 expression in lung tissue (immunohistochemistry) [4, 7] | IFNγ expression level in lung (flow cytometry) [4, 8] | IL-6 expression level in lung (flow cytometry) [4, 8] | IL-17 expression level in lung (flow cytometry) [4, 8] | apelin expression in lung tissue (immunofluorescence) [5, 9] | lung histology (Masson's trichrome): inflammatory infiltrate, fibrosis, hypertrophy, pulmonary oedema [5, 9] | apelin expression in blood (flow cytometry) [5, 10] | blood T cells (flow cytometry) [5, 10] | blood neutrophils (flow cytometry) [5, 10]
CCCCCc1cc(O)c2c(c1)OC(C)(CCC=C(C)C)C=C2 (stereo not shown) [CBC, cannabichromene] | potent activator | weak inhibitor | inhibitor of endocannabinoid cellular reuptake | 8 | 98 | curtailed the expression levels | curtailed the expression levels | curtailed the expression levels | reduced hypertrophy and fibrosis | increased the level of expression | increased the level of expression | curtailed the expression levels | curtailed the expression levels | curtailed the expression levels |  |  |  |  | 
C=C(C)[C@@H]1CCC(C)=C[C@H]1c1c(O)cc(CCCCC)cc1O [CBD, cannabidiol] |  |  |  |  |  |  |  |  |  |  |  |  |  |  | increased apelin expression towards control levels; also recorded: normalized the Apelin expression | completely or partially abolished; also recorded: improved the structure towards the normal architecture | enhanced expression of apelin; also recorded: normalized the expression level of apelin; also recorded: attenuated these effects | returned decreased T cells and increased neutrophils towards the normal level | returned decreased T cells and increased neutrophils towards the normal level
